Experiments:
[1] = system: mouse model of myocardial ischemic infarction; conditions: 4 weeks
Experimental: (§1) In this experiment, a mouse model of myocardial ischemic infarction was established by a permanent coronary artery ligation operation.
(§2) Trientine treatment was administered to four groups of modelized mice via intragastric route twice a day at a dose of 16.75, 33.49, 55.94, or 78.25 mg/kg per day. This treatment was continued for 4 weeks.
Cardiac functions were evaluated by echocardiography to assess therapeutic efficacy of trientine. All mice were subjected to transthoracic echocardiographic evaluation with a 12 MHz transducer (i13L, Vivid7, GE Ultrasound). The ejection fraction (EF) of the left ventricular was evaluated with the Simpson's single-plane method. Left-ventricular end-diastolic volume (LVEDV) and end-systolic volume (LVESV) were directly recorded, and EF was calculated using as follows: EF=(LVEDV−LVESV)/LVEDV×100%.

[2] = system: Sprague-Dawley rats with pathologic cardiac hypertrophy; conditions: AAC rats, trientine treatment for 6 weeks, AAC-Tr(H) and AAC-Tr(L) combined; FIG. 10A
Experimental: (§3) The aortic ascending constriction (AAC) group was divided into three groups: a control group (NS group) and two trientine treatment groups (Tr(H) group and Tr(L) group). Rats in the sham group were subjected to the same surgical procedure except for the steps of the aortic ascending constriction. The sham group rats were also divided into three groups: a control group (NS group) and two trientine treatment groups (Tr(H) group and Tr(L) group). Rats in the control groups were treated with a saline solution. Trientine was administered orally twice a day in the trientine treatment groups. Two doses of trientine (dose calculated based on trientine dihydrochloride) were administered, […]. The treatment was continued for 6 weeks.
(§4) Cardiac morphology and functions were evaluated by echocardiography, and plasma copper concentrations were measured (i.e. blood detection) to assess therapeutic efficacy of the trientine treatments according to the schedule shown in FIG. 7.
Tissue samples were freshly frozen and stored at −80° C. before lyophilization. […] Ultrapure water was added to each vessel to dilute HNO3 to 2% for subsequent analyses of copper concentrations.

[3] = system: mouse model of myocardial ischemic infarction
Experimental: as §1, §2
(§5) Tissue samples were freshly frozen and stored at −80° C. before lyophilization. […] Ultrapure water was added to each vessel to dilute HNO3 to 2% for subsequent analyses of copper concentrations. Copper concentrations were determined by graphite furnace atomic absorption spectrophotometry (ICE3500, Thermo) according to the program shown in Table 1 of Example 3.

[4] = system: Rhesus monkey model of heart failure; conditions: 18 mg/kg/day oral, eight weeks; FIG. 13
Experimental: (§6) Trientine treatment was subsequently conducted. In the trientine-treated group, trientine was administered to each monkey orally two times daily. The dose of trientine was 18 mg/kg/day. This treatment was continued for eight weeks. […] Cardiac functions and morphology were evaluated according to the schedule shown in FIG. 11 to assess therapeutic efficacy of trientine.
as §5, with “−80° °” for “−80°”
Copper concentration in the myocardium was determined by atomic absorption spectroscopy.

[5] = system: Sprague-Dawley rats with pathologic cardiac hypertrophy
Experimental: This example describes an in vivo experiment for assessing efficacy of the trientine therapy in Sprague-Dawley rats with pathologic cardiac hypertrophy. The rat model of pathologic cardiac hypertrophy was established by an ascending aortic constriction operation.
The rats were sedated by intraperitoneal injection of 10% chloral hydrate ([…]) for echocardiography measurements. At 4 months after the aortic constriction operation and at 1, 3 and 5 weeks after the trientine treatment, a series of echocardiograms were performed using an 11.5-MHz transducer (Vivid 7 Dimension, GE). Interventricular septum depth (IVSD) and left ventricular posterior wall depth (LVPWD) were obtained using two-dimensional mode by taking measurements of the short-axis cross-sectional areas and the left ventricular length.
The ejection fraction (EF) and shortening fraction (FS) of the left ventricular were evaluated with the Simpson's single-plane method. Left-ventricular end-diastolic volume (LVEDV), end-systolic volume (LVESV), end-diastolic interior diameter (LVIDd) and end-systolic interior diameter (LVIDs) were directly recorded. EF and FS were calculated according to the following formulas: EF=(LVEDV−LVESV)/LVEDV×100%, FS=(LVIDd−LVIDs)/LVIDd×100%
as §3, §4

[6] = system: Rhesus monkey model of heart failure; conditions: 18 mg/kg/day oral two times daily, eight weeks; untreated group decreased; FIG. 12
Experimental: The ejection fraction (EF) of the left ventricular was evaluated with the Simpson's single-plane method. Left-ventricular end-diastolic volume (LVEDV) and end-systolic volume (LVESV) were directly recorded, and EF was calculated using as follows: EF=(LVEDV−LVESV)/LVEDV×100%.
as §6

[7] = AAC rats, oral twice a day, after 3 weeks of treatment

NCCNCCNCCN [trientine, triethylenetetramine]
dose at which the improvement ratio of ejection fraction reached a peak ([1]; doses tested 16.75, 33.49, 55.94, 78.25 mg/kg per day): 33.49 mg/kg per day
improvement of left ventricular ejection fraction at higher doses ([1]; intragastric twice a day, FIG. 15): decreased
cardiac function as measured by left ventricular ejection fraction, lower doses ([1]; intragastric twice a day, 16.75-78.25 mg/kg per day, FIG. 15): improved
copper concentrations in the heart tissues [2]: increased
dose at which copper content in the infarct area was the highest ([3]; doses tested 16.75, 33.49, 55.94, 78.25 mg/kg per day, 4 weeks): 33.49 mg/kg per day
copper content of the infarcted area or ejection fraction at higher doses than 33.49 mg/kg per day ([3]; higher trientine doses tested (55.94, 78.25 mg/kg per day)): no further improvement
copper concentration in the infarcted area ([3]; intragastric twice a day, 4 weeks, FIG. 16): increased significantly
copper concentration, border zone, compared to untreated group [4]: increased significantly
copper concentration, infarcted area, compared to untreated group [4]: increased significantly
copper concentration, remote areas, treated vs untreated group [4]: comparable
IVSD as compared to the sham groups ([5]; AAC rats treated for 5 weeks): nearly normal
LVPWD as compared to the sham groups ([5]; AAC rats treated for 5 weeks): nearly normal
interventricular septum depth (IVSD) [5, 7]: decreased significantly
left ventricular posterior wall depth (LVPWD) [5, 7]: decreased significantly
IVSD values over time (continuous monitoring) ([5]; treated AAC groups, control group increased steadily, FIG. 8A): significantly downward trend
LVPWD values over time (continuous monitoring) ([5]; treated AAC groups, control group increased steadily, FIG. 8B): significantly downward trend
left ventricular ejection fraction (EF) ([5]; trientine-treated groups, untreated groups showed significant downward trend, FIG. 9A): did not fluctuate very significantly
left ventricular shortening fraction (FS) ([5]; trientine-treated groups, untreated groups showed significant downward trend, FIG. 9B): did not fluctuate very significantly
left ventricular ejection fraction [6]: increased significantly
